Several values for one entry are separate records, joined by “and”; a condition that tells them apart may be missing. Equal entries are not always repeated.
Tested on: chronic hepatitis B with hepatic fibrosis
Test: Phase II clinical study: hepatic fibrosis Ishak score by liver biopsy, before and after 52 weeks of treatment on entecavir basic treatment
Assay type: in vivo, human
Details: for Ishak score 4 points, n(%) / Ishak score 5 points, n(%) / Ishak score 6 points, n(%) / Hepatic fibrosis Ishak score, Mean (SD) / Hepatic fibrosis Ishak score, Median / Ishak score 0 point, n(%) / Ishak score 1 point, n(%) / Ishak score 2 points, n(%) / Ishak score 3 points, n(%) / Progressive Ishak score (increases by ≥1 compared with the baseline) / Reversed Ishak score (decreases by ≥1 point compared with the baseline) / Stable Ishak score (unchanged compared with the baseline): 52 weeks of treatment; for Rate difference (B-C) % and 95% CI, Ishak score decreased by ≥1: 360 mg group minus 180 mg group; for Rate difference (B-C) % and 95% CI, Ishak score decreased by ≥1 / Rate difference (B-D) % and 95% CI, Ishak score decreased by ≥1 / Rate difference (A-B) % and 95% CI, Ishak score decreased by ≥1 / Rate difference (A-C) % and 95% CI, Ishak score decreased by ≥1 / Rate difference (A-D) % and 95% CI, Ishak score decreased by ≥1: 52 weeks; for Rate difference (B-D) % and 95% CI, Ishak score decreased by ≥1: 360 mg group minus 270 mg group; for Rate difference (A-C) % and 95% CI, Ishak score decreased by ≥1: placebo group minus 180 mg group; for Rate difference (A-D) % and 95% CI, Ishak score decreased by ≥1: placebo group minus 270 mg group
Method: This is a randomized, double-blind, placebo-controlled, multicenter, and dose-finding phase II clinical study with foundational treatment. In the clinical trial, three different dose test groups and a placebo control group were set on the basis of the entecavir capsule antiviral treatment, and the planned sample amount of each group was 60 cases, totaling 240 cases. The three dose test groups were 180 mg group, 270 mg group, and 360 mg group, respectively. […]

[1] = 270 mg group, PPS, baseline Ishak score ≥3
[2] = 270 mg group, PPS, all subjects
[3] = 270 mg group, PPS, screening period-follow-up 15 (52 weeks), baseline Ishak score ≥3
[4] = 360 mg group, FAS, 52 weeks of treatment vs baseline, all subjects
[5] = 360 mg group, FAS, all subjects
[6] = 360 mg group, FAS, baseline Ishak score ≥3
[7] = 360 mg group, FAS, screening period-follow-up 15 (52 weeks), baseline Ishak score ≥3
[8] = 360 mg group, PPS, 52 weeks of treatment vs baseline, all subjects
[9] = 360 mg group, PPS, all subjects
[10] = 360 mg group, PPS, baseline Ishak score ≥3
[11] = 360 mg group, PPS, screening period-follow-up 15 (52 weeks), baseline Ishak score ≥3
[12] = Group B/C/D combined, FAS, baseline Ishak score ≥2
[13] = Group B/C/D combined, FAS, screening period-follow-up 15 (52 weeks), baseline Ishak score ≥2
[14] = Group B/C/D combined, PPS, baseline Ishak score ≥2
[15] = Group B/C/D combined, PPS, screening period-follow-up 15 (52 weeks), baseline Ishak score ≥2

## Cc1ccc(=O)n(-c2ccc(O)cc2)c1 [hydronidone]
[1]
  Ishak score 4 points, n(%): 5(20.00) n(%)
  Ishak score 5 points, n(%): 5(20.00) n(%)
  Ishak score 6 points, n(%): 2(8.00) n(%)
[2]
  Ishak score change, Baseline-52 weeks of treatment, Mean (SD): 0.91(1.15)
  Ishak score change, Baseline-52 weeks of treatment, Median: 1.00
[3]
  Ishak score decreased by <1, n(%): 7(28.00) n(%)
  Ishak score decreased by ≥1, n(%): 18(72.00) n(%)
FAS, all subjects
  Rate difference (B-C) % and 95% CI, Ishak score decreased by ≥1: 3.43(−17.12, 23.60) %
  Rate difference (B-D) % and 95% CI, Ishak score decreased by ≥1: −12.20(−32.01, 9.10) %
  Rate difference (A-C) % and 95% CI, Ishak score decreased by ≥1: −14.89(−33.32, 4.99) %
  Rate difference (A-D) % and 95% CI, Ishak score decreased by ≥1: −30.52% and −30.52(−48.12, −9.50) %
FAS, baseline Ishak score ≥3
  Rate difference (B-C) % and 95% CI, Ishak score decreased by ≥1: 4.45(−20.88, 29.28) %
  Rate difference (B-D) % and 95% CI, Ishak score decreased by ≥1: −5.67(−29.01, 18.67) %
  Rate difference (A-C) % and 95% CI, Ishak score decreased by ≥1: −18.17(−42.04, 9.11) %
  Rate difference (A-D) % and 95% CI, Ishak score decreased by ≥1: −28.29(−50.04, −1.45) %
PPS, all subjects
  Rate difference (B-C) % and 95% CI, Ishak score decreased by ≥1: 5.72(−16.89, 27.53) %
  Rate difference (B-D) % and 95% CI, Ishak score decreased by ≥1: −12.77(−33.83, 9.98) %
  Rate difference (A-C) % and 95% CI, Ishak score decreased by ≥1: −21.03(−40.20, 0.26) %
  Rate difference (A-D) % and 95% CI, Ishak score decreased by ≥1: −39.52% and −39.52(−56.83, −17.26) %
PPS, baseline Ishak score ≥3
  Rate difference (B-C) % and 95% CI, Ishak score decreased by ≥1: 8.91(−17.46, 34.07) %
  Rate difference (B-D) % and 95% CI, Ishak score decreased by ≥1: −4.00(−27.91, 20.54) %
  Rate difference (A-C) % and 95% CI, Ishak score decreased by ≥1: −23.09(−46.75, 5.09) %
  Rate difference (A-D) % and 95% CI, Ishak score decreased by ≥1: −36.00(−56.89, −8.38) %
[4]
  Ishak score decreased by <1, n(%): 23(56.10) n(%)
  Ishak score decreased by ≥1, n(%): 18 (43.90%) n(%) and 18(43.90) n(%)
[5]
  Hepatic fibrosis Ishak score, Mean (SD): 2.83(1.45)
  Hepatic fibrosis Ishak score, Median: 3.00
  Ishak score 0 point, n(%): 0(0.00) n(%)
  Ishak score 1 point, n(%): 10(24.39) n(%)
  Ishak score 2 points, n(%): 8(19.51) n(%)
  Ishak score 3 points, n(%): 9(21.95) n(%)
  Ishak score 4 points, n(%): 8(19.51) n(%)
  Ishak score 5 points, n(%): 5(12.20) n(%)
  Ishak score 6 points, n(%): 1(2.44) n(%)
  Progressive Ishak score (increases by ≥1 compared with the baseline): 5 (12.20%) n(%) and 5(12.20) n(%)
  Reversed Ishak score (decreases by ≥1 point compared with the baseline): 18(43.90) n(%)
  Stable Ishak score (unchanged compared with the baseline): 18 (43.90%) n(%) and 18(43.90) n(%)
  Ishak score change, Baseline-52 weeks of treatment, Mean (SD): 0.56(1.25)
  Ishak score change, Baseline-52 weeks of treatment, Median: 0.00
[6]
  Ishak score 0 point, n(%): 0(0.00) n(%)
  Ishak score 1 point, n(%): 4(13.79) n(%)
  Ishak score 2 points, n(%): 4(13.79) n(%)
  Ishak score 3 points, n(%): 8(27.59) n(%)
  Ishak score 4 points, n(%): 7(24.14) n(%)
  Ishak score 5 points, n(%): 5(17.24) n(%)
  Ishak score 6 points, n(%): 1(3.45) n(%)
[7]
  Ishak score decreased by <1, n(%): 12(41.38) n(%)
  Ishak score decreased by ≥1, n(%): 17(58.62) n(%)
[8]
  Ishak score decreased by <1, n(%): 16(47.06) n(%)
  Ishak score decreased by ≥1, n(%): 18 (52.94%) n(%) and 18(52.94) n(%)
[9]
  Hepatic fibrosis Ishak score, Mean (SD): 2.82(1.49)
  Hepatic fibrosis Ishak score, Median: 3.00
  Ishak score 0 point, n(%): 0(0.00) n(%)
  Ishak score 1 point, n(%): 9(26.47) n(%)
  Ishak score 2 points, n(%): 6(17.65) n(%)
  Ishak score 3 points, n(%): 7(20.59) n(%)
  Ishak score 4 points, n(%): 7(20.59) n(%)
  Ishak score 5 points, n(%): 4(11.76) n(%)
  Ishak score 6 points, n(%): 1(2.94) n(%)
  Progressive Ishak score (increases by ≥1 compared with the baseline): 5 (14.71%) n(%) and 5(14.71) n(%)
  Reversed Ishak score (decreases by ≥1 point compared with the baseline): 18(52.94) n(%)
  Stable Ishak score (unchanged compared with the baseline): 11 (32.35%) n(%) and 11(32.35) n(%)
  Ishak score change, Baseline-52 weeks of treatment, Mean (SD): 0.68(1.34)
  Ishak score change, Baseline-52 weeks of treatment, Median: 1.00
[10]
  Ishak score 0 point, n(%): 0(0.00) n(%)
  Ishak score 1 point, n(%): 4(16.00) n(%)
  Ishak score 2 points, n(%): 4(16.00) n(%)
  Ishak score 3 points, n(%): 6(24.00) n(%)
  Ishak score 4 points, n(%): 6(24.00) n(%)
  Ishak score 5 points, n(%): 4(16.00) n(%)
  Ishak score 6 points, n(%): 1(4.00) n(%)
[11]
  Ishak score decreased by <1, n(%): 8(32.00) n(%)
  Ishak score decreased by ≥1, n(%): 17(68.00) n(%)
Group A vs Group B/C/D combined, FAS, baseline Ishak score ≥2
  Rate difference (A-B) % and 95% CI, Ishak score decreased by ≥1: −24.09(−40.50, −4.45) %
Group A vs Group B/C/D combined, PPS, baseline Ishak score ≥2
  Rate difference (A-B) % and 95% CI, Ishak score decreased by ≥1: −32.29(−48.91, −12.08) %
[12]
  Ishak score 0 point, n(%): 5(4.95) n(%)
  Ishak score 1 point, n(%): 20(19.80) n(%)
  Ishak score 2 points, n(%): 17(16.83) n(%)
  Ishak score 3 points, n(%): 18(17.82) n(%)
  Ishak score 4 points, n(%): 17(16.83) n(%)
  Ishak score 5 points, n(%): 17(16.83) n(%)
  Ishak score 6 points, n(%): 7(6.93) n(%)
[13]
  Ishak score decreased by <1, n(%): 43(42.57) n(%)
  Ishak score decreased by ≥1, n(%): 58(57.43) n(%)
[14]
  Ishak score 0 point, n(%): 5(5.75) n(%)
  Ishak score 1 point, n(%): 20(22.99) n(%)
  Ishak score 2 points, n(%): 12(13.79) n(%)
  Ishak score 3 points, n(%): 14(16.09) n(%)
  Ishak score 4 points, n(%): 16(18.39) n(%)
  Ishak score 5 points, n(%): 14(16.09) n(%)
  Ishak score 6 points, n(%): 6(6.90) n(%)
[15]
  Ishak score decreased by <1, n(%): 29(33.33) n(%)
  Ishak score decreased by ≥1, n(%): 58(66.67) n(%)
Placebo group minus 360 mg group, FAS, all subjects
  Rate difference (A-B) % and 95% CI, Ishak score decreased by ≥1: −18.32(−36.76, 1.96) %
Placebo group minus 360 mg group, FAS, baseline Ishak score ≥3
  Rate difference (A-B) % and 95% CI, Ishak score decreased by ≥1: −22.62(−44.98, 3.82) %
Placebo group minus 360 mg group, PPS, all subjects
  Rate difference (A-B) % and 95% CI, Ishak score decreased by ≥1: −26.75% and −26.75(−45.78, −4.75) %
Placebo group minus 360 mg group, PPS, baseline Ishak score ≥3
  Rate difference (A-B) % and 95% CI, Ishak score decreased by ≥1: −32.00(−53.61, −4.37) %
Placebo group vs 270 mg group + 360 mg group, FAS, baseline Ishak score = 6
  Rate difference (A-B) % and 95% CI, Ishak score decreased by ≥1: −65.00(−87.03, −10.74) %
Placebo group vs 270 mg group + 360 mg group, FAS, baseline Ishak score ≥3
  Rate difference (A-B) % and 95% CI, Ishak score decreased by ≥1: −25.40(−44.93, −2.00) %
Placebo group vs 270 mg group + 360 mg group, FAS, baseline Ishak score ≥4
  Rate difference (A-B) % and 95% CI, Ishak score decreased by ≥1: −23.80(−46.21, 2.59) %
Placebo group vs 270 mg group + 360 mg group, FAS, baseline Ishak score ≥5
  Rate difference (A-B) % and 95% CI, Ishak score decreased by ≥1: −15.38(−42.13, 13.79) %
Placebo group vs 270 mg group + 360 mg group, PPS, baseline Ishak score = 6
  Rate difference (A-B) % and 95% CI, Ishak score decreased by ≥1: −65.00(−87.03, −10.74) %
Placebo group vs 270 mg group + 360 mg group, PPS, baseline Ishak score ≥3
  Rate difference (A-B) % and 95% CI, Ishak score decreased by ≥1: −34.00(−53.15, −10.15) %
Placebo group vs 270 mg group + 360 mg group, PPS, baseline Ishak score ≥4
  Rate difference (A-B) % and 95% CI, Ishak score decreased by ≥1: −30.06(−51.94, −3.18) %
Placebo group vs 270 mg group + 360 mg group, PPS, baseline Ishak score ≥5
  Rate difference (A-B) % and 95% CI, Ishak score decreased by ≥1: −20.83(−47.05, 8.90) %

— patent US20240261271A1, “APPLICATION OF HYDRONIDONE IN PREPARATION OF DRUG FOR TREATING OR PREVENTING CHRONIC HEPATITIS B WITH LIVER FIBROSIS” (priority 2021, published 2024)
